Results on one compound are retold here after US20190381198A1, “RA[…]-GAL[…] FOR PET IMAGING OF SENESCENCE” (Eberhard Karls Universitaet Tuebingen Medizinische Fakultaet, priority 2017, published 2019).

Data set [1] concerns HRas driven liver progenitor cell line. Put plainly: in vitro tracer uptake in senescent vs control HRas driven liver progenitor cells (gamma counter). The class given is cell-based. As to conditions: 3.7-7.4 MBq of tracer, 50 minutes. The procedure:
(§1) As the second model, transgenic liver progenitor cell line (Hras) was used for subcutaneous allografts in nude mice. The cell line expresses Hras^G12v and p53shRNA under doxycycline (doxy) conditions. After the removal of doxycycline, the p53 mRNA can be restored and translated to p53 protein. The high amount of p53 triggers senescence. The animals bearing Hras tumors received doxy-water (0.2 mg/ml) for tumor development and 14 days, after removal of doxy-water, the PET/MRT scans are performed with compound 9.
(§2) HCT116 (FIG. 4a) and Hras cells (FIG. 4b) are treated with […] of tracer and incubated for 50 minutes. The cells are measured in a gamma-counter, with the activity normalized to the number of cells used.
(§3) The PET-tracer is tested in two different models in vitro. In HCT116 cells senescence is induced by overnight incubation with doxorubicin, followed by 4 days of culture under normal conditions. Senescence in a HRas driven liver progenitor cell line with a doxycycline regulatable p53-specific shRNA. After induction of senescence, both cell lines are incubated with 3.7-7.4 MBq of tracer for 50 minutes. The cells are then washed, counted and measured in a gamma counter. The activity taken up by the cells is analyzed and normalized to a million cells.

Data set [2] can be described thus: stability of tracer 9 in mouse serum (radio-HPLC). The class given is in vitro ADME. As to conditions: 37° C., 1 hour. On the procedure: The tracer 9 is incubated at 37° C. in mouse serum to assess its stability. After 1 hour, 2 volume equivalents of acetonitrile are added and the mixture is centrifuged for 5 minutes. The supernatant is examined directly using radio-HPLC. Serum stability of tracer 9 after 1 h (FIG. 3a) vs tracer 9 (FIG. 3b) is derivable from FIG. 3.

Data set [3] deals with HCT116 cells. Description: in vitro tracer uptake in senescent vs control HCT116 cells (gamma counter). The class given is cell-based. As to conditions: 3.7-7.4 MBq of tracer, 50 minutes. The procedure: as §2, §3
Data set [4] relates to Hras tumors. Put plainly: in vivo PET tracer uptake in s.c. HRas driven tumors, senescence by doxycycline removal. As to conditions: for TMR (tumor-to-muscle ratio) / tracer uptake: PET; for tracer uptake: i.v. Further details: species or system nude mice. The procedure: as §1
(§4) In vivo tests are performed in nude mice bearing s.c. HCT116 or HRas driven liver progenitor cells. Mice bearing HCT116 tumors are treated with doxorubicin (10 mg/Kg bodyweight) and imaged 4 days after the onset of senescence. Mice bearing Hras driven tumor are supplied with doxycycline in their drinking water, which has been later removed to induce senescence. After induction of senescence, the tracer is administered i.v. and PET scans are performed. The %ID/cc and tumor-to-muscle ratios are determined through quantitative analysis of the PET data, permitting evaluation of the tracers. In vitro senescent HCT116 cells show an uptake of 11 kBq/1 mio cells, while the uptake in non-senescent control cells is only 4 kBq/1 mio cells.
Both %ID/cc and TMR are higher in senescent vs control tumors. The excised tumors are subjected to ex vivo analyses. […] Senescent tumor slices also show higher X-Gal staining than control sections. The nonsenescent tumor expresses GFP, which can be visualized with optical imaging.

The test system of data set [5] is beta-galactosidase. As to conditions: 30° C., 30 minutes, citrate buffer pH 5.5.
Protocol: To assess whether tracer 9 is a substrate of beta-galactosidase, it is incubated at 30° C. for 30 minutes in citrate buffer of pH 5.5 containing commercially available betagalactosidase (Sigma). The reaction is stopped by adding 2 volume equivalents of acetonitrile, followed by 5 minutes of centrifugation. The supernatant is examined directly using radio-HPLC. […] The expected radioactive metabolite is compared with the authentic non-radioactive standard (FIG. 2). […] Compound 11 is galactose.
The subject of data set [6] is HCT116 tumors. Put plainly: in vivo PET tracer uptake in s.c. HCT116 xenograft tumors, doxorubicin-induced senescence. Further details: species or system nude mice. As to conditions: for TMR (tumor-to-muscle ratio) / in vivo tracer uptake: PET; for in vivo tracer uptake: i.v. On the procedure:
A xenograft model of colorectal cancer cell line (HCT116) with therapy induced senescence, doxorubicin is used as a chemotherapeutic. Senescence is induced in HCT116 xenograft tumors by intravenous (i.v.) administration of doxorubicin (10 mg/kg). Through tail vain of the mice, 5 days later dynamic PET/MRT scans (1 h) with compound 9 are performed.
as §4
The in vivo tracer uptake in senescent and non-senescent HCT116 tumors (FIG. 5) is 1.7+/−0.7 (n=7) vs 1.1+/−0.4 (n=5) %ID/cc respectively; the respective TMR values are 1.7 and 1.1. […] Both %ID/cc and TMR are higher in senescent vs control tumors. The excised tumors are subjected to ex vivo analyses.

As to `OC[C@H]1O[C@@H](Oc2cccnc2[18F])[C@H](O)[C@@H](O)[C@H]1O` [tracer 9], the “uptake in senescent cells compared to controls” value in data set [1] (Hras cells, activity normalized to number of cells) was “significantly higher uptake compared to the controls”; in data set [3] (HCT116 cells, activity normalized to number of cells), “significantly higher uptake compared to the controls”. For the same compound, the uptake worked out at 63 kBq/1 mio cells in data set [1] (non-senescent HRas driven liver progenitor cells), 192 kBq/1 mio cells in data set [1] (senescent HRas driven liver progenitor cells), 4 kBq/1 mio cells in data set [3] (non-senescent control HCT116 cells) and 11 kBq/1 mio cells in data set [3] (senescent HCT116 cells). In addition, the serum stability result in data set [2] is “integrity remains largely intact”. Besides, the “autoradiography of excised tumors, ex vivo” value is “higher tracer uptake in the senescent tumor section vs control” in data set [4] (HRas tumor sections, senescent vs control) and “higher tracer uptake in the senescent tumor section vs control” in data set [6] (HCT116 tumor sections, senescent vs control). Also, the “TMR (tumor-to-muscle ratio)” value amounted to 1.2 in data set [4] (control HRas tumors), 2.1 in data set [4] (senescent HRas tumors), 1.1 in data set [6] (non-senescent HCT116 tumors) and 1.7 in data set [6] (senescent HCT116 tumors). The tracer uptake is recorded as 0.9+/−0.3 %ID/cc in data set [4] (control HRas tumors, n=11) and 1.5+/−0.3 %ID/cc in data set [4] (senescent HRas tumors, n=16). Moreover, in data set [5], the “conversion by beta-galactosidase (radioactive metabolite by radio-HPLC)” value is listed as “produces the radioactive metabolite with the same retention time as the non-radioactive 2-fluoropyridinol”. Further, the “in vivo tracer uptake” value in data set [6] (non-senescent HCT116 tumors, n=5) is listed as 1.1+/−0.4 %ID/cc; in data set [6] (senescent HCT116 tumors, n=7), 1.7+/−0.7 %ID/cc.
